This note sets out measurements from patent publication US20160318987A1 (MEDIMMUNE LIMITED, priority 2013, published 2016).

Where a SMILES comes first, the peptide text is derived from it. [ ]: non-standard residue; d: D form. αMeF = C[C@](N)(Cc1ccccc1)C(=O)O; Aib = CC(C)(N)C(=O)O

Common to all, as to assay type: cell-based
Conditions in all cases: n = 2

One test deals with T1, hGIP-R (Homo sapiens, UniProt P48546).
T1 construct: expressed in transfected cells
T1 sequence (P48546 22-466): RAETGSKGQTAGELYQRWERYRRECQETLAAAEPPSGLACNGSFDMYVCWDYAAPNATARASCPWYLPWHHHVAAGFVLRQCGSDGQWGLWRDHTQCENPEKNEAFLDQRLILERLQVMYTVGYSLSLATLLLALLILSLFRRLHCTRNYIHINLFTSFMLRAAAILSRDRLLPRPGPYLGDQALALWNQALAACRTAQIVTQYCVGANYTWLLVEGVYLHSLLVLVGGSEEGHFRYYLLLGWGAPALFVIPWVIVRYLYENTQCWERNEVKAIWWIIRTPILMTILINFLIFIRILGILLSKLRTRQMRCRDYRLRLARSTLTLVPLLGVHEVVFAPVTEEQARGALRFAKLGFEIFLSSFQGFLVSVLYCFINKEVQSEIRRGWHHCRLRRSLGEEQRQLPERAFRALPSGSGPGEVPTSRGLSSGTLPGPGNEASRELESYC
Nature of the test: cAMP functional assay, cells expressing human GIP receptor (primary assay).

Another test has as its target T2, hGluc-R (Homo sapiens, UniProt P47871).
T2 construct: expressed in transfected cells
Kind of test: cAMP functional assay, cells expressing human glucagon receptor (primary assay). On the procedure:
The biological activities/receptor potencies of the synthetic GLP-1 peptides described herein are suitably tested for biological activity, e.g., stimulation of one or more cellular receptor responses. Stable cell lines expressing human, mouse, rat, or dog GLP-1 receptor (GLP-1R), glucagon receptor (GCGR) or glucose-dependent insulinotropic peptide (gastric inhibitory polypeptide) receptor (GIPR) are generated in HEK293 cells or CHO cells by standard methods.
cAMP assays were performed using “assay buffer”: Assay Buffer: 0.1% BSA (Sigma #A3059) in HBSS (Sigma #H8264) with 25 mM HEPES, pH 7.4 and containing 0.5 mM IBMX (Sigma #17018).
Low protein binding 384-well plates (Greiner #781280) are used to perform eleven 1 in 5 serial dilutions of test samples which are made in assay buffer. All sample dilutions are made in duplicate.
A frozen cryo-vial of cells expressing the receptor of interest is thawed rapidly in a water-bath, transferred to pre-warmed assay buffer and spun at 240× g for 5 minutes. Cells are re-suspended in assay buffer at a batch-dependent optimized concentration (e.g. hGCGR cells at 2×10^5 cells/ml, hGLP-1R and hGIPR cells at 1×10^5 cells /ml).
From the dilution plate, a 5 μL replica is stamped onto a black shallow-well u-bottom 384-well plate (Corning #3676). To this, 5 μL cell suspension is added and the plates incubated at room temperature for 30 minutes.
cAMP levels are measured using a commercially available cAMP dynamic 2 HTRF kit (Cisbio, Cat #62AM4PEJ), following the two step protocol as per manufacturer's recommendations. In brief; anti-cAMP cryptate (donor fluorophore) and cAMP-d2 (acceptor fluorophore) are made up separately by diluting each 1/20 in conjugate & lysis buffer provided in the kit. 5 μL anti-cAMP cryptate is added to all wells of the assay plate, and 5 μL cAMP-d2 is added to all wells except non-specific binding (NSB) wells, to which conjugate and lysis buffer are added. Plates are incubated at room temperature for one hour and then read on an Envision (Perkin Elmer) using excitation wavelength of 320 nm and emission wavelengths of 620 nm & 665 nm. EC50 values of the synthetic peptides determined in cAMP assays are then determined.

The next test has as its target T3, hGLP-1R (Homo sapiens, UniProt P43220).
T3 construct: expressed in transfected cells
Nature of the test: cAMP functional assay, cells expressing human GLP-1 receptor (primary assay).

T2 sequence (P47871 26-477): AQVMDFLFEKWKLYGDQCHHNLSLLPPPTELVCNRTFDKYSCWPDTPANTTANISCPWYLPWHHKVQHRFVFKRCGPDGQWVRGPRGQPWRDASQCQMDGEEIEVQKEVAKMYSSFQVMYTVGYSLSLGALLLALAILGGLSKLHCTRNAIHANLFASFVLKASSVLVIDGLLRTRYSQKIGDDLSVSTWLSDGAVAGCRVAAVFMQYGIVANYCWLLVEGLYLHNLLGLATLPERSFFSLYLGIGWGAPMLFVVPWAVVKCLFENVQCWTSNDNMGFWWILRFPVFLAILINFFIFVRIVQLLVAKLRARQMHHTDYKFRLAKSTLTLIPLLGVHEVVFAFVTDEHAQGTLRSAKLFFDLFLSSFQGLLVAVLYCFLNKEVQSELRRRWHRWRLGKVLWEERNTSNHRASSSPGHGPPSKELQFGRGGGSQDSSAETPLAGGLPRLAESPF
T3 sequence (P43220 24-463): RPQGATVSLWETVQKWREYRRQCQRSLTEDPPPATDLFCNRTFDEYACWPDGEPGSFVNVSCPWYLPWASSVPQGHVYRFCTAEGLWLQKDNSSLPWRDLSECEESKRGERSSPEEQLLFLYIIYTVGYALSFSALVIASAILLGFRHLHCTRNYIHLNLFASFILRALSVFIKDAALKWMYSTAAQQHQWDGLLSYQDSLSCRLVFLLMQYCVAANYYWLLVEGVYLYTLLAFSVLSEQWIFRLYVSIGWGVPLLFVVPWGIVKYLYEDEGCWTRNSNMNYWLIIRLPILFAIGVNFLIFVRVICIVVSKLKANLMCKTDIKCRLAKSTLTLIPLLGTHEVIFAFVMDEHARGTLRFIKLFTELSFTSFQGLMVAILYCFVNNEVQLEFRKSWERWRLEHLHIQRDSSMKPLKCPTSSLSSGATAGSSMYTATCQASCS

On to `CCCCCCCCCCCCCCCC(=O)NCCCC[C@H](NC(=O)[C@H](CCCNC(=N)N)NC(=O)CNC(=O)[C@H](CCCCN)NC(=O)[C@@H](NC(=O)[C@H](CC(C)C)NC(=O)[C@H](Cc1c[nH]c2ccccc12)NC(=O)[C@H](C)NC(=O)[C@@H](NC(=O)[C@H](Cc1ccccc1)NC(=O)[C@H](CCC(=O)O)NC(=O)[C@H](CCCCN)NC(=O)[C@H](C)NC(=O)[C@H](C)NC(=O)[C@H](CCC(N)=O)NC(=O)CNC(=O)[C@H](CCC(=O)O)NC(=O)[C@H](CC(C)C)NC(=O)[C@H](Cc1ccc(O)cc1)NC(=O)[C@H](CO)NC(=O)[C@H](CO)NC(=O)[C@@H](NC(=O)[C@H](CC(=O)O)NC(=O)[C@H](CO)NC(=O)[C@@H](NC(=O)[C@H](Cc1ccccc1)NC(=O)[C@@H](NC(=O)CNC(=O)[C@H](CCC(=O)O)NC(=O)C(C)(C)NC(=O)[C@@H](N)Cc1c[nH]cn1)[C@@H](C)O)[C@@H](C)O)C(C)C)[C@@H](C)CC)C(C)C)C(N)=O` [SEQ ID NO: 5, H-(Aib)^2-EGT^5 FTSDV^10 SSYLE^15 GQAAK^20 EFIAW^25 LVKGR^30-K(Ε-Palm), reference compound], for which the EC50 turned out to be 90.6 nM at hGIP-R, 90.6 nM on hGluc-R and 0.0254 nM at hGLP-1R.

For `CC[C@H](C)[C@H](NC(=O)[C@H](Cc1ccccc1)NC(=O)[C@H](CCC(=O)O)NC(=O)[C@H](CCCCN)NC(=O)[C@H](C)NC(=O)[C@H](C)NC(=O)[C@H](CCC(N)=O)NC(=O)CNC(=O)[C@H](CCC(=O)O)NC(=O)[C@H](CC(C)C)NC(=O)[C@H](Cc1ccc(O)cc1)NC(=O)[C@H](CO)NC(=O)[C@H](CO)NC(=O)[C@@H](NC(=O)[C@H](CC(=O)O)NC(=O)[C@H](CO)NC(=O)[C@@H](NC(=O)[C@](C)(Cc1ccccc1)NC(=O)[C@@H](NC(=O)CNC(=O)[C@H](CCC(=O)O)NC(=O)C(C)(C)NC(=O)[C@@H](N)Cc1c[nH]cn1)[C@@H](C)O)[C@@H](C)O)C(C)C)C(=O)N[C@@H](C)C(=O)N[C@@H](Cc1c[nH]c2ccccc12)C(=O)N[C@@H](CC(C)C)C(=O)N[C@H](C(=O)N[C@@H](CCCCN)C(=O)NCC(=O)N[C@@H](CCCNC(=N)N)C(N)=O)C(C)C` [SEQ ID NO: 6, H-(Aib)^2-EGT^5-(α-MeF)^6-TSDV^10 SSYLE^15 GQAAK^20 EFIAW^25 LVKGR^30], the EC50 on hGIP-R is 74.9 nM; on hGluc-R it was 153 nM; on hGLP-1R it was 0.026 nM.

As to `CC[C@H](C)[C@H](NC(=O)[C@H](Cc1ccccc1)NC(=O)[C@H](CCC(=O)O)NC(=O)[C@H](CCCCN)NC(=O)[C@H](C)NC(=O)[C@H](C)NC(=O)[C@H](CCC(N)=O)NC(=O)CNC(=O)[C@H](CCC(=O)O)NC(=O)[C@H](CC(C)C)NC(=O)[C@H](Cc1ccc(O)cc1)NC(=O)[C@H](CO)NC(=O)[C@H](CO)NC(=O)[C@@H](NC(=O)[C@H](CC(=O)O)NC(=O)[C@H](CO)NC(=O)[C@@H](NC(=O)C(C)(C)NC(=O)[C@@H](NC(=O)CNC(=O)[C@H](CCC(=O)O)NC(=O)C(C)(C)NC(=O)[C@@H](N)Cc1c[nH]cn1)[C@@H](C)O)[C@@H](C)O)C(C)C)C(=O)N[C@@H](C)C(=O)N[C@@H](Cc1c[nH]c2ccccc12)C(=O)N[C@@H](CC(C)C)C(=O)N[C@H](C(=O)N[C@@H](CCCCN)C(=O)NCC(=O)N[C@@H](CCCNC(=N)N)C(N)=O)C(C)C` [SEQ ID NO: 7, H-(Aib)^2-EGT^5-(Aib)^6-TSDV^10 SSYLE^15 GQAAK^20 EFIAW^25 LVKGR^30], the EC50 at hGIP-R is 151 nM; at hGluc-R, 151 nM; on hGLP-1R it was 0.0728 nM.

For `CC[C@H](C)[C@H](NC(=O)[C@H](Cc1ccccc1)NC(=O)[C@H](CCC(=O)O)NC(=O)[C@H](CCCCN)NC(=O)[C@H](C)NC(=O)[C@H](C)NC(=O)[C@H](CCC(N)=O)NC(=O)CNC(=O)[C@H](CCC(=O)O)NC(=O)[C@H](CC(C)C)NC(=O)[C@](C)(Cc1ccc(O)cc1)NC(=O)[C@H](CO)NC(=O)[C@H](CO)NC(=O)[C@@H](NC(=O)[C@H](CC(=O)O)NC(=O)[C@H](CO)NC(=O)[C@@H](NC(=O)[C@H](Cc1ccccc1)NC(=O)[C@@H](NC(=O)CNC(=O)[C@H](CCC(=O)O)NC(=O)C(C)(C)NC(=O)[C@@H](N)Cc1c[nH]cn1)[C@@H](C)O)[C@@H](C)O)C(C)C)C(=O)N[C@@H](C)C(=O)N[C@@H](Cc1c[nH]c2ccccc12)C(=O)N[C@@H](CC(C)C)C(=O)N[C@H](C(=O)N[C@@H](CCCCN)C(=O)NCC(=O)N[C@@H](CCCNC(=N)N)C(N)=O)C(C)C` [SEQ ID NO: 8, H-(Aib)^2-EGT^5 FTSDV^10 SS-(α-MeY)^13-LE^15 GQAAK^20 EFIAW^25 LVKGR^30], the EC50 on hGIP-R stood at 156 nM; on hGluc-R it was 156 nM; on hGLP-1R, 0.0229 nM.

For `CC[C@H](C)[C@H](NC(=O)[C@H](Cc1ccccc1)NC(=O)[C@H](CCC(=O)O)NC(=O)[C@H](CCCCN)NC(=O)[C@H](C)NC(=O)[C@H](C)NC(=O)[C@H](CCC(N)=O)NC(=O)CNC(=O)[C@H](CCC(=O)O)NC(=O)[C@H](CC(C)C)NC(=O)[C@](C)(Cc1ccccc1)NC(=O)[C@H](CO)NC(=O)[C@H](CO)NC(=O)[C@@H](NC(=O)[C@H](CC(=O)O)NC(=O)[C@H](CO)NC(=O)[C@@H](NC(=O)[C@H](Cc1ccccc1)NC(=O)[C@@H](NC(=O)CNC(=O)[C@H](CCC(=O)O)NC(=O)C(C)(C)NC(=O)[C@@H](N)Cc1c[nH]cn1)[C@@H](C)O)[C@@H](C)O)C(C)C)C(=O)N[C@@H](C)C(=O)N[C@@H](Cc1c[nH]c2ccccc12)C(=O)N[C@@H](CC(C)C)C(=O)N[C@H](C(=O)N[C@@H](CCCCN)C(=O)NCC(=O)N[C@@H](CCCNC(=N)N)C(N)=O)C(C)C` [SEQ ID NO: 9, H-(Aib)^2-EGT^5 FTSDV^10 SS-(α-MeF)^13-LE^15 GQAAK^20 EFIAW^25 LVKGR^30] (H-H[Aib]EGTFTSDVSS[αMeF]LEGQAAKEFIAWLVKGR-NH2), the EC50 worked out at 141 nM at hGIP-R, 141 nM at hGluc-R and 0.0338 nM on hGLP-1R.

On to `CC[C@H](C)[C@H](NC(=O)[C@H](Cc1ccccc1)NC(=O)[C@H](CCC(=O)O)NC(=O)[C@H](CCCCN)NC(=O)[C@H](C)NC(=O)[C@H](C)NC(=O)[C@H](CCC(N)=O)NC(=O)CNC(=O)[C@H](CCC(=O)O)NC(=O)[C@H](CC(C)C)NC(=O)C(C)(C)NC(=O)[C@H](CO)NC(=O)[C@H](CO)NC(=O)[C@@H](NC(=O)[C@H](CC(=O)O)NC(=O)[C@H](CO)NC(=O)[C@@H](NC(=O)[C@H](Cc1ccccc1)NC(=O)[C@@H](NC(=O)CNC(=O)[C@H](CCC(=O)O)NC(=O)C(C)(C)NC(=O)[C@@H](N)Cc1c[nH]cn1)[C@@H](C)O)[C@@H](C)O)C(C)C)C(=O)N[C@@H](C)C(=O)N[C@@H](Cc1c[nH]c2ccccc12)C(=O)N[C@@H](CC(C)C)C(=O)N[C@H](C(=O)N[C@@H](CCCCN)C(=O)NCC(=O)N[C@@H](CCCNC(=N)N)C(N)=O)C(C)C` [SEQ ID NO: 10, H-(Aib)^2-EGT^5 FTSDV^10 SS-(Aib)^13-LE^15 GQAAK^20 EFIAW^25 LVKGR^30] (H-H[Aib]EGTFTSDVSS[Aib]LEGQAAKEFIAWLVKGR-NH2), for which the EC50 at hGIP-R is 131 nM; on hGluc-R, 131 nM; at hGLP-1R it was 0.0437 nM.

With `CC[C@H](C)[C@H](NC(=O)[C@](C)(Cc1ccccc1)NC(=O)[C@H](CCC(=O)O)NC(=O)[C@H](CCCCN)NC(=O)[C@H](C)NC(=O)[C@H](C)NC(=O)[C@H](CCC(N)=O)NC(=O)CNC(=O)[C@H](CCC(=O)O)NC(=O)[C@H](CC(C)C)NC(=O)[C@H](Cc1ccc(O)cc1)NC(=O)[C@H](CO)NC(=O)[C@H](CO)NC(=O)[C@@H](NC(=O)[C@H](CC(=O)O)NC(=O)[C@H](CO)NC(=O)[C@@H](NC(=O)[C@H](Cc1ccccc1)NC(=O)[C@@H](NC(=O)CNC(=O)[C@H](CCC(=O)O)NC(=O)C(C)(C)NC(=O)[C@@H](N)Cc1c[nH]cn1)[C@@H](C)O)[C@@H](C)O)C(C)C)C(=O)N[C@@H](C)C(=O)N[C@@H](Cc1c[nH]c2ccccc12)C(=O)N[C@@H](CC(C)C)C(=O)N[C@H](C(=O)N[C@@H](CCCCN)C(=O)NCC(=O)N[C@@H](CCCNC(=N)N)C(N)=O)C(C)C` [SEQ ID NO: 11, H-(Aib)^2-EGT^5 FTSDV^10 SSYLE^15 GQAAK^20 E-(α-MeF)^22IAW^25 LVKGR^30], the EC50 was 153 nM on hGIP-R, 153 nM on hGluc-R and 0.0547 nM at hGLP-1R.
